From ChEMBL document CHEMBL3872201, “Synthesis and antiproliferative activity of a natural like glycoconjugate polycyclic compound” (2016)

Assay: Cytotoxicity against human MDA-MB-231 cells assessed as inhibition of cell viability at 5 uM after 48 hrs by MTT assay relative to control
Type: functional
Conditions: MDA-MB-231, 48 h

## C=C1c2c(C)nn(-c3ccc(OC)cc3)c2N(C)C23CC1C1(C)c4c(C)nn(-c5ccc(OC)cc5)c4N(C)C(C)(CC12)C3 (stereo unspecified)
  inhibition at 5 µM: 26%
